In patent US11178895B2, “Composition for enhancing immunity of insects and method thereof” (NatureWise Biotech & Medicals Corporation, priority 2017, dated 2021):

System: field bees
Assay: Honey bee acute contact toxicity test (topical imidacloprid): tolerance of bees to imidacloprid
Format: in vivo
Conditions: control group fed 50% sucrose water
Text: Many reports confirm that neonicotinoids cause damage to the immune system of bees and many species (Mason et al., 2013). It is clear that damage to the immune system may be one of the important causes of bee killing by imidacloprid (a pesticide). According to the experimental results of the composition of the invention on the survival rate of bees and the regulation of immune genes, in this experiment, field bees that are easily exposed to pesticides are used as the test subjects, and sugar water containing a concentration of 0.5 mg/mL of Macaranga tanarius extract is fed to observe whether the tolerance of bees to imidacloprid can be enhanced.
The experiment employed Topical application method with reference to US EPAOCSPP 850.3020: Honey Bee Acute Contact Toxicity Test. […] After the bees were frozen and fainted, 1 μg/bee of the imidacloprid solution was administered quantitatively to the prothorax tergum of the bee by a microapplicator. The solvent control group was administered with 1 […]. Each group had 10 bees. After the administration of the drug, the bees were transferred to a constant-temperature growth box for breeding. The sugar water containing 0.5 mg/mL of Macaranga tanarius extract was provided to feed the bees in the experimental group, and the control group was fed with 50% sucrose water. […]

## O=[N+]([O-])NC1=NCCN1Cc1ccc(Cl)nc1 [imidacloprid]
6.7 ng/μL imidacloprid
  24-hour average mortality rate: 19.30%
23.8 ng/μL imidacloprid
  24-hour average mortality rate: 36.84%
